The record followed here is US20250026766A1, “Thiazolopyridyl Amide Derivatives as DNA Polymerase Theta Inhibitors” (BeiGene, Ltd., priority 2022, published 2025).

pIC50: −log10 of the molar value.

Sequence of Pol Theta (1-894) (O75417 1-894): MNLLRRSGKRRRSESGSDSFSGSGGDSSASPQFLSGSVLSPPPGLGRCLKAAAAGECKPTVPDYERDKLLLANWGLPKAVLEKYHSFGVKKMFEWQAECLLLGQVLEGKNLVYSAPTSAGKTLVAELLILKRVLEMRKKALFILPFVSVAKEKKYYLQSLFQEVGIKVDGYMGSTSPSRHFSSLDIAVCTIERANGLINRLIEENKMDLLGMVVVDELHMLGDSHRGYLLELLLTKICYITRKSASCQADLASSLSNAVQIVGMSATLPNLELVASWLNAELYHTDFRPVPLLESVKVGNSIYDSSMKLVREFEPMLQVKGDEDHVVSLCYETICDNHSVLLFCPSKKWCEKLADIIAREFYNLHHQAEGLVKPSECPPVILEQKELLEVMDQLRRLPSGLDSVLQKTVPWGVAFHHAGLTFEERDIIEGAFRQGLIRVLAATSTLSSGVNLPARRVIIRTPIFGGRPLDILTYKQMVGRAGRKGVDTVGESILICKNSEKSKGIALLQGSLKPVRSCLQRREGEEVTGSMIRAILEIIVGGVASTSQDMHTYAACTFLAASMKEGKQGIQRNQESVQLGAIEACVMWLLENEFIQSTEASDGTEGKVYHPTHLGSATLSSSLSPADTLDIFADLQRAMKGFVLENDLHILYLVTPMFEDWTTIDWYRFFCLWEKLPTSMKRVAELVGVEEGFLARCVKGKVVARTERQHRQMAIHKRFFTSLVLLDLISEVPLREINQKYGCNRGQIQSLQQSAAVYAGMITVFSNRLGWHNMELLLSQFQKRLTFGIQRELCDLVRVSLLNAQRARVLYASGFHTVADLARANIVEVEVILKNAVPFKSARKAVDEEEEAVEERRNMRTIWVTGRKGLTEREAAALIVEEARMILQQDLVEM

The assay concerns the target Pol Theta (1-894) (Homo sapiens (Human), UniProt O75417). Briefly: Biochemical Pol Theta (1-894) ATPase IC50 assay (ADP-Glo, ssDNA substrate). The note with it: ADP-Glo assay with ssDNA substrate, room temperature. The gist of the method:
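His-tagged human Pol Theta 1-894 from Sf9 baculovirus cells, 2× enzyme solution at 12.5 nM, assayed with ssDNA substrate at room temperature in 40 mM Tris pH 7.5, 20 mM MgCl2, 1 mM DTT, 0.01% BSA, 0.05% Tween-20.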
A general note: ADP-Glo first removes unused ATP, then detects ADP through luciferase.
Usually pIC50 stands for −log10 of the IC50, conventionally taken in molar units. Higher therefore signals a low IC50. Molecule `COc1ccc(C#N)cc1-c1cc(C)ncc1C(=O)Nc1nc2ccc(-c3ccc(CC#N)cc3)nc2s1` [Example 116, 4-(5-cyano-2-methoxyphenyl)-N-(5-(4-(cyanomethyl)phenyl)thiazolo[5,4-b]pyridin-2-yl)-6-methylnicotinamide] showed a negative logarithm of the IC50 (pIC50) of 8.25.

The molecule `COc1ccccc1-c1cnncc1C(=O)Nc1nc2ccc(-c3ccc(Cl)cc3Cl)nc2s1` [Example 117, N-(5-(2,4-dichlorophenyl)thiazolo[5,4-b]pyridin-2-yl)-5-(2-methoxyphenyl)pyridazine-4-carboxamide] showed a pIC50 of 7.92.

The molecule `COc1ccccc1-c1cnncc1C(=O)Nc1nc2ccc(OCC3CCCO3)nc2s1` (centres unmarked) [Example 118, 5-(2-methoxyphenyl)-N-(5-((tetrahydrofuran-2-yl)methoxy)thiazolo[5,4-b]pyridin-2-yl)pyridazine-4-carboxamide] gave a pIC50 of 7.77.

In turn, `COc1cc(C#N)ccc1-c1ccc2nc(NC(=O)c3cnncc3-c3ccccc3OC)sc2n1` [Example 119, N-(5-(4-cyano-2-methoxyphenyl)thiazolo[5,4-b]pyridin-2-yl)-5-(2-methoxyphenyl)pyridazine-4-carboxamide] had a pIC50 of 8.28.

On to `Cc1cc(-c2ccc(=O)n(C)c2C)c(C(=O)Nc2nc3ccc(-c4ccc(C#N)cc4)nc3s2)cn1` [Example 120, N-(5-(4-cyanophenyl)thiazolo[5,4-b]pyridin-2-yl)-1,2,6′-trimethyl-6-oxo-1,6-dihydro-[3,4′-bipyridine]-3′-carboxamide], for which the pIC50 is 8.10.

`COc1ccccc1-c1cnncc1C(=O)Nc1nc2ccc(-c3ccc(C#N)cc3C)nc2s1` [Example 121, N-(5-(4-cyano-2-methylphenyl)thiazolo[5,4-b]pyridin-2-yl)-5-(2-methoxyphenyl)pyridazine-4-carboxamide]: the pIC50 is 8.31.

For the molecule `COc1ccc(C#N)cc1-c1cc(C)ncc1C(=O)Nc1nc2ccc(-c3ccc(OCCO)cc3)nc2s1` [Example 122, 4-(5-cyano-2-methoxyphenyl)-N-(5-(4-(2-hydroxyethoxy)phenyl)thiazolo[5,4-b]pyridin-2-yl)-6-methylnicotinamide], the pIC50 is 7.85.

`COCCOc1ccc(-c2ccc3nc(NC(=O)c4cnc(C)cc4-c4cc(C#N)ccc4OC)sc3n2)cc1` [Example 123, 4-(5-cyano-2-methoxyphenyl)-N-(5-(4-(2-methoxyethoxy)phenyl)thiazolo[5,4-b]pyridin-2-yl)-6-methylnicotinamide] had a pIC50 of 7.57.

`COc1ccccc1-c1cnncc1C(=O)Nc1nc2ccc(C(=O)N3CCOCC3)nc2s1` [Example 124, 5-(2-methoxyphenyl)-N-(5-(morpholine-4-carbonyl)thiazolo[5,4-b]pyridin-2-yl)pyridazine-4-carboxamide] had a pIC50 of 7.36.

Consider `COc1ccccc1-c1cnncc1C(=O)Nc1nc2ccc(-c3ccc(Cl)c4c3cnn4C)nc2s1` [Example 125, N-(5-(7-chloro-1-methyl-1H-indazol-4-yl)thiazolo[5,4-b]pyridin-2-yl)-5-(2-methoxyphenyl)pyridazine-4-carboxamide], for which the pIC50 is 7.60.

`COc1ccccc1-c1cnncc1C(=O)Nc1nc2ccc(-c3ccc(Cl)c4nn(C)cc34)nc2s1` [Example 126, N-(5-(7-chloro-2-methyl-2H-indazol-4-yl)thiazolo[5,4-b]pyridin-2-yl)-5-(2-methoxyphenyl)pyridazine-4-carboxamide]: the pIC50 was 7.92.

In turn, `COc1ccc(C#N)cc1-c1cc(C)ncc1C(=O)Nc1nc2ccc(C3CCOC3)nc2s1` (centres unmarked) [Example 127, 4-(5-cyano-2-methoxyphenyl)-6-methyl-N-(5-(tetrahydrofuran-3-yl)thiazolo[5,4-b]pyridin-2-yl)nicotinamide] had a pIC50 of 7.46.

For `COc1ccccc1-c1cnncc1C(=O)Nc1nc2ccc(-c3ccc(C#N)cc3F)nc2s1` [Example 128, N-(5-(4-cyano-2-fluorophenyl)thiazolo[5,4-b]pyridin-2-yl)-5-(2-methoxyphenyl)pyridazine-4-carboxamide], the pIC50 is 8.09.

Consider `COc1ccccc1-c1cnncc1C(=O)Nc1nc2ccc(Oc3ccc(Cl)c(C)c3)nc2s1` [Example 129, N-(5-(4-chloro-3-methylphenoxy)thiazolo[5,4-b]pyridin-2-yl)-5-(2-methoxyphenyl)pyridazine-4-carboxamide], for which the pIC50 is 7.64.

As to `COc1ccccc1-c1cnncc1C(=O)Nc1nc2ccc(Oc3ccc(Cl)c(F)c3)nc2s1` [Example 130, N-(5-(4-chloro-3-fluorophenoxy)thiazolo[5,4-b]pyridin-2-yl)-5-(2-methoxyphenyl)pyridazine-4-carboxamide], the pIC50 is 7.46.

The molecule `COc1cc(Oc2ccc3nc(NC(=O)c4cnncc4-c4ccccc4OC)sc3n2)ccc1Cl` [Example 131, N-(5-(4-chloro-3-methoxyphenoxy)thiazolo[5,4-b]pyridin-2-yl)-5-(2-methoxyphenyl)pyridazine-4-carboxamide] showed a pIC50 of 7.85.

Molecule `CCNC(=O)c1ccc(-c2ccc3nc(NC(=O)c4cnncc4-c4ccccc4OC)sc3n2)c(C)c1` [Example 132, N-(5-(4-(ethylcarbamoyl)-2-methylphenyl)thiazolo[5,4-b]pyridin-2-yl)-5-(2-methoxyphenyl)pyridazine-4-carboxamide] had a pIC50 of 7.92.

For `COc1ccccc1-c1cnncc1C(=O)Nc1nc2ccc(-c3ccc(S(C)(=O)=O)cc3F)nc2s1` [Example 133, N-(5-(2-fluoro-4-(methylsulfonyl)phenyl)thiazolo[5,4-b]pyridin-2-yl)-5-(2-methoxyphenyl)pyridazine-4-carboxamide], the pIC50 was 7.96.

The molecule `CNC(=O)c1ccc(-c2ccc3nc(NC(=O)c4cnncc4-c4ccccc4OC)sc3n2)c(C)c1` [Example 134, 5-(2-methoxyphenyl)-N-(5-(2-methyl-4-(methylcarbamoyl)phenyl)thiazolo[5,4-b]pyridin-2-yl)pyridazine-4-carboxamide] showed a pIC50 of 7.82.

With `COc1ccc(C#N)cc1-c1cc(C)ncc1C(=O)Nc1nc2ccc(-c3ccc(N4CCCS4(=O)=O)cc3)nc2s1` [Example 135, 4-(5-cyano-2-methoxyphenyl)-N-(5-(4-(1,1-dioxidoisothiazolidin-2-yl)phenyl)thiazolo[5,4-b]pyridin-2-yl)-6-methylnicotinamide], the pIC50 is 7.64.

On to `COc1ccc(C#N)cc1-c1cc(C)ncc1C(=O)Nc1nc2ccc(-c3ccc(N(CCO)S(C)(=O)=O)cc3)nc2s1` [Example 136, 4-(5-cyano-2-methoxyphenyl)-N-(5-(4-(N-(2-hydroxyethyl)methylsulfonamido)phenyl)thiazolo[5,4-b]pyridin-2-yl)-6-methylnicotinamide], for which the pIC50 was 7.39.

`COc1ccccc1-c1cnncc1C(=O)Nc1nc2ccc(C(=O)c3ccc(Cl)cc3)nc2s1` [Example 137, N-(5-(4-chlorobenzoyl)thiazolo[5,4-b]pyridin-2-yl)-5-(2-methoxyphenyl)pyridazine-4-carboxamide] gave a pIC50 of 7.27.

Molecule `COc1ccccc1-c1cnncc1C(=O)Nc1nc2ccc(C(C)c3ccc(Cl)cc3)nc2s1` (centres unmarked) [Example 138, N-(5-(1-(4-chlorophenyl)ethyl)thiazolo[5,4-b]pyridin-2-yl)-5-(2-methoxyphenyl)pyridazine-4-carboxamide] gave a pIC50 of 6.58.

For `COc1ccccc1-c1cnncc1C(=O)Nc1nc2ccc(-c3ccc(Cl)c(C)c3C)nc2s1` [Example 139, N-(5-(4-chloro-2,3-dimethylphenyl)thiazolo[5,4-b]pyridin-2-yl)-5-(2-methoxyphenyl)pyridazine-4-carboxamide], the pIC50 was 7.68.

`COc1ccccc1-c1cnncc1C(=O)Nc1nc2ccc(-c3cc(C)c(NC(C)=O)c(C)c3)nc2s1` [Example 140, N-(5-(4-acetamido-3,5-dimethylphenyl)thiazolo[5,4-b]pyridin-2-yl)-5-(2-methoxyphenyl)pyridazine-4-carboxamide] showed a pIC50 of 8.11.

With `COc1ccccc1-c1cnncc1C(=O)Nc1nc2ccc(-c3cc(C)c(NC(C)=O)cc3C)nc2s1` [Example 141, N-(5-(4-acetamido-2,5-dimethylphenyl)thiazolo[5,4-b]pyridin-2-yl)-5-(2-methoxyphenyl)pyridazine-4-carboxamide], the pIC50 is 8.51.

`COc1ccccc1-c1cnncc1C(=O)Nc1nc2ccc(-c3ccc(NC(C)=O)c(F)c3)nc2s1` [Example 142, N-(5-(4-acetamido-3-fluorophenyl)thiazolo[5,4-b]pyridin-2-yl)-5-(2-methoxyphenyl)pyridazine-4-carboxamide]: the pIC50 is 8.27.

Molecule `COc1ccccc1-c1cnncc1C(=O)Nc1nc2ccc(-c3ccc(C#N)nc3)nc2s1` [Example 144, N-(5-(6-cyanopyridin-3-yl)thiazolo[5,4-b]pyridin-2-yl)-5-(2-methoxyphenyl)pyridazine-4-carboxamide] gave a pIC50 of 7.96.

Molecule `COc1ccc(C#N)cc1-c1cc(C)ncc1C(=O)Nc1nc2ccc(-c3ccc(C(=O)N4CCC4)cc3)nc2s1` [Example 145, N-(5-(4-(azetidine-1-carbonyl)phenyl)thiazolo[5,4-b]pyridin-2-yl)-4-(5-cyano-2-methoxyphenyl)-6-methylnicotinamide] gave a pIC50 of 7.66.

In the case of `COc1cccc(Cl)c1-c1cc(C)ncc1C(=O)Nc1nc2ccc(-c3ccc(C#N)cc3)nc2s1` [Example 146, 4-(2-chloro-6-methoxyphenyl)-N-(5-(4-cyanophenyl)thiazolo[5,4-b]pyridin-2-yl)-6-methylnicotinamide], the pIC50 was 7.66.

In the case of `Cc1cc(-c2cc(C#N)c(=O)n(C)c2)c(C(=O)Nc2nc3ccc(-c4ccc(C#N)cc4)nc3s2)cn1` [Example 147, 5-cyano-N-(5-(4-cyanophenyl)thiazolo[5,4-b]pyridin-2-yl)-1,6′-dimethyl-6-oxo-1,6-dihydro-[3,4′-bipyridine]-3′-carboxamide], the pIC50 was 7.28.

Regarding `COc1ccccc1-c1cnncc1C(=O)Nc1nc2ccc(-c3c(C)cc(C#N)cc3C)nc2s1` [Example 148, N-(5-(4-cyano-2,6-dimethylphenyl)thiazolo[5,4-b]pyridin-2-yl)-5-(2-methoxyphenyl)pyridazine-4-carboxamide], the pIC50 is 8.08.
